Data reported in patent US10654847B2, “Substituted 2-(4-heterocyclylbenzyl)isoindolin-1-one analogs as positive allosteric modulators of the muscarinic acetylcholine receptor M1” (Vanderbilt University, priority 2011, dated 2020).
Blank lines part the entries; values can stand above or below the molecule they belong to.

Molecular target: T1, mAChR M1 (UniProt P11229)
T1 sequence (P11229 1-460): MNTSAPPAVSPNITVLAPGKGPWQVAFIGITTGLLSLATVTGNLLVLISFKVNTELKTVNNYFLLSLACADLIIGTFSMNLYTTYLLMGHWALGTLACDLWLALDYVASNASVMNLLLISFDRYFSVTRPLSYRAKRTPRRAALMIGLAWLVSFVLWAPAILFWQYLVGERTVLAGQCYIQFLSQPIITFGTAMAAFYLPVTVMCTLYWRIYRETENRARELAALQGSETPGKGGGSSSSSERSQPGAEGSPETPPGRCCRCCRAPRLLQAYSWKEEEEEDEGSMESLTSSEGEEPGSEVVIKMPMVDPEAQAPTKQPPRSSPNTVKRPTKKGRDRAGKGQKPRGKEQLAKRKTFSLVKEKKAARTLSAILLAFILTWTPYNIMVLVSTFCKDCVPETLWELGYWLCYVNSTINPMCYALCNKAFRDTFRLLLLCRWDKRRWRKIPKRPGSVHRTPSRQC
Assay: mAChR M1 cell-based functional assay (calcium mobilization, potentiation of EC20 acetylcholine response)
Settings: for Emax (%): % ACh maximum at 30 μM, mAChR M1-expressing CHO-K1 cells, calcium flux; for pEC50 / EC50: positive allosteric modulation of EC20 ACh response, mAChR M1 CHO-K1 cells; for pEC50: <5 estimated where no plateau; for EC50: >10 μM estimated where no plateau, read-out: EC50
Procedure: Chinese hamster ovary (CHO-K1) cells stably expressing rat (r)M1 were purchased from the American Type Culture Collection and cultured according to their indicated protocol. […] To make stable rM2, hM2, rM3, hM4, and rM4 cell lines for use in calcium mobilization assays, these cells also were stably transfected with a chimeric G-protein (Gqi5) (provided by B. R. Conklin, University of California, San Francisco) using Lipofectamine 2000. rM1, hM1, rM3, hM3, rM5, and hM5 cells were grown in Ham's F-12 medium containing 10% heat-inactivated fetal bovine serum (FBS), 20 mM HEPES, and 50 μg/mL G418 sulfate. rM2-Gqi5, hM2-Gqi5, and hM4-Gqi5 cells were grown in the same medium also containing 500 μg/mL Hygromycin B. Stable rM4-Gqi5 cells were grown in DMEM containing 10% heat-inactivated FBS, 20 mM HEPES, 400 μg/mL G418 sulfate, and 500 μg/mL Hygromycin B.
For high throughput measurement of agonist-evoked increases in intracellular calcium, CHO-K1 cells stably expressing muscarinic receptors were plated in growth medium lacking G418 and hygromycin at 15,000 cells/20 μL/well in Greiner 384-well black-walled, tissue culture (TC)-treated, clear-bottom plates (VWR). Cells were incubated overnight at 37° C. and 5% CO2. […] Compound master plates were formatted in an 11 point CRC format (1:3 dilutions) in 100% DMSO with a starting concentration of 10 mM using the BRAVO liquid handler (Agilent). Test compound CRCs were then transferred to daughter plates (240 nL) using the Echo acoustic plate reformatter (Labcyte, Sunnyvale, Calif.) and then diluted into assay buffer (40 μL) to a 2× stock using a Thermo Fisher Combi (Thermo Fisher Scientific, Waltham, Mass.).
Calcium flux was measured using the Functional Drug Screening System (FDSS) 6000 (Hamamatsu Corporation, Tokyo, Japan) as an increase in the fluorescent static ratio. Compounds were applied to cells (20 μL, 2×) using the automated system of the FDSS 6000 at 4 s into the 300 s protocol and the data were collected at 1 Hz. […] Agonist activity was analyzed as a concentration-dependent increase in calcium mobilization upon compound addition. Positive allosteric modulator activity was analyzed as a concentration-dependent increase in the EC20 acetylcholine response. Antagonist activity was analyzed as a concentration-dependent decrease in the EC80 acetylcholine response. Concentration-response curves were generated using a four-parameter logistical equation in XLfit curve fitting software (IDBS, Bridgewater, N.J.) for Excel (Microsoft, Redmond, Wash.) or Prism (GraphPad Software, Inc., San Diego, Calif.).
The above described assay was also operated in a second mode where an appropriate fixed concentration of the present compounds were added to the cells after establishment of a fluorescence baseline for about 3 seconds, and the response in cells was measured. […] Data were reduced as described above and the EC50 values for the agonist in the presence of test compound were determined by nonlinear curve fitting. A decrease in the EC50 value of the agonist with increasing concentrations of the present compounds (a leftward shift of the agonist concentration-response curve) is an indication of the degree of muscarinic positive allosteric modulation at a given concentration of the present compound. An increase in the EC50 value of the agonist with increasing concentrations of the present compounds (a rightward shift of the agonist concentration response curve) is an indication of the degree of muscarinic antagonism at a given concentration of the present compound. The second mode also indicates whether the present compounds also affect the maximum response of the muscarinic receptor to agonists.
The calcium mobilization assay was also used to determine “efficacy”.

Structure (SMILES): Cn1cc(-c2ccc(CN3Cc4cc(F)cc(F)c4C3=O)c(F)c2)cn1 [Example B7]
Emax (%): 63%
pEC50: 5.59
EC50: 2600 nM

Structure (SMILES): CN(C)c1ccc(-c2ccc(CN3Cc4ncccc4C3=O)c(F)c2)cn1 [Example B39]
Emax (%): 31%
pEC50: 5.98
EC50: 1050 nM

Structure (SMILES): O=C1c2ncccc2CN1Cc1ccc(-c2cncc(Cl)c2)cc1F [Example B73]
Emax (%): 38%
pEC50: <5.00
EC50: > 10000 nM

Structure (SMILES): Cn1ncc2cc(-c3ccc(CN4Cc5cccnc5C4=O)c(F)c3)ccc21 [Example B61]
Emax (%): 38%
pEC50: <5.00
EC50: > 10000 nM

Structure (SMILES): O=C1c2ncccc2CN1Cc1ccc(-c2ccc3cnccc3c2)cc1F [Example B79]
Emax (%): 62%
pEC50: 5.83
EC50: 1480 nM

Structure (SMILES): O=C1c2ncccc2CN1Cc1ccc(-c2cccnc2)cc1F [Example B64]
Emax (%): 50%
pEC50: <5.00
EC50: > 10000 nM

Structure (SMILES): Cn1ncc2c(-c3ccc(CN4Cc5ncccc5C4=O)c(F)c3)cccc21 [Example B29]
Emax (%): 58%
pEC50: 5.80
EC50: 1590 nM

Structure (SMILES): CN(C)c1ccc(-c2ccc(CN3Cc4cccnc4C3=O)c(Cl)c2)cn1 [Example B74]
Emax (%): 58%
pEC50: 5.73
EC50: 1860 nM

Structure (SMILES): O=C1c2ncccc2CN1Cc1ccc(-c2ccncc2)cc1F [Example B65]
Emax (%): 56%
pEC50: <5.00
EC50: > 10000 nM

Structure (SMILES): O=C1c2cccnc2CN1Cc1ccc(-c2ccc3cnccc3c2)cc1F [Example B44]
Emax (%): 65%
pEC50: 6.04
EC50: 912 nM

Structure (SMILES): O=C1c2ncccc2CN1Cc1ccc(-c2ccc3ccncc3c2)cc1F [Example B70]
Emax (%): 59%
pEC50: 5.68
EC50: 2090 nM

Structure (SMILES): Cn1cc2cc(-c3ccc(CN4Cc5ncncc5C4=O)c(F)c3)ccc2n1 [Example B56]
Emax (%): 80%
pEC50: 6.40
EC50: 398 nM

Structure (SMILES): Cn1cc(-c2ccc(CN3Cc4ccncc4C3=O)c(F)c2)cn1 [Example B8]
Emax (%): 79%
pEC50: 5.55
EC50: 2800 nM

Structure (SMILES): COc1ccc(-c2ccc(CN3Cc4ncccc4C3=O)c(F)c2)cc1 [Example B50]
Emax (%): 34%
pEC50: 6.01
EC50: 977 nM

Structure (SMILES): CN1CC=C(c2ccc(CN3Cc4ncccc4C3=O)c(F)c2)CC1 [Example B53]
Emax (%): 80%
pEC50: 5.51
EC50: 3090 nM

Structure (SMILES): Cn1cc(-c2ccc(CN3Cc4ccccc4C3=O)cn2)cn1 [Example B17]
Emax (%): 40%
pEC50: <5.00
EC50: > 10000 nM

Structure (SMILES): O=C1c2cccnc2CN1Cc1ccc(-c2cnc3ccccc3c2)cc1F [Example B37]
Emax (%): 31%
pEC50: 6.41
EC50: 389 nM

Structure (SMILES): Cn1cc2ccc(-c3ccc(CN4Cc5cccnc5C4=O)c(F)c3)cc2n1 [Example B72]
Emax (%): 79%
pEC50: 5.70
EC50: 2000 nM

Structure (SMILES): CN(C)c1ccc(-c2ccc(CN3Cc4cccnc4C3=O)c(F)c2)cn1 [Example B78]
Emax (%): 48%
pEC50: 5.90
EC50: 1260 nM

Structure (SMILES): Cc1cc(-c2ccc(CN3Cc4cccnc4C3=O)c(F)c2)cnc1Cl [Example B63]
Emax (%): 48%
pEC50: 5.73
EC50: 1860 nM

Structure (SMILES): Cn1cc2c(-c3ccc(CN4Cc5ncccc5C4=O)c(F)c3)cccc2n1 [Example B32]
Emax (%): 74%
pEC50: 6.07
EC50: 851 nM

Structure (SMILES): Cn1cc2cc(-c3ccc(CN4Cc5ccccc5S4(=O)=O)c(F)c3)ccc2n1 [Example B5]
Emax (%): 34%
pEC50: 5.60
EC50: 2500 nM

Structure (SMILES): COc1ccc(-c2ccc(CN3Cc4cccnc4C3=O)c(Cl)c2)cc1 [Example B76]
Emax (%): 35%
pEC50: 5.83
EC50: 1480 nM

Structure (SMILES): Cn1cc(-c2cnc(CN3Cc4ncccc4C3=O)c(F)c2)cn1 [Example B18]
Emax (%): 40%
pEC50: <5.00
EC50: > 10000 nM

Structure (SMILES): Cn1cc(-c2ccc(CN3Cc4ncccc4C3=O)c(F)c2)cn1 [Example B9]
Emax (%): 83%
pEC50: 5.55
EC50: 2800 nM

Structure (SMILES): Cn1ncc2ccc(-c3ccc(CN4Cc5cccnc5C4=O)c(F)c3)cc21 [Example B60]
Emax (%): 76%
pEC50: 5.80
EC50: 1590 nM

Second part, the molecule after the results:

Emax (%): 65%
pEC50: 5.53
EC50: 2950 nM
Structure (SMILES): O=C1c2cccnc2CN1Cc1ccc(-c2cnc3ccccn23)cc1F [Example B93]

Emax (%): 48%
pEC50: <5.00
EC50: > 10000 nM
Structure (SMILES): O=C1c2cccnc2CN1Cc1c(F)cc(-c2cccc3nccn23)cc1F [Example B89]

Emax (%): 36%
pEC50: 6.71
EC50: 195 nM
Structure (SMILES): O=C1c2cccnc2CN1Cc1c(F)cc(-c2ccc3c(c2)OCCO3)cc1F [Example B94]

Emax (%): 49%
pEC50: 6.68
EC50: 209 nM
Structure (SMILES): Cc1n[nH]c2cc(-c3cc(F)c(CN4Cc5ncccc5C4=O)c(F)c3)ccc12 [Example B98]

Emax (%): 36%
pEC50: 5.14
EC50: 7240 nM
Structure (SMILES): Cn1cc2c(-c3cccc(CN4Cc5ncccc5C4=O)c3F)cccc2n1 [Example B109]

Emax (%): 80%
pEC50: 6.80
EC50: 158 nM
Structure (SMILES): Cn1cc2c(-c3cc(F)c(CN4Cc5ncccc5C4=O)c(F)c3)cccc2n1 [Example B81]

Emax (%): 68%
pEC50: 6.91
EC50: 123 nM
Structure (SMILES): Cc1n[nH]c2ccc(-c3cc(F)c(CN4Cc5ncccc5C4=O)c(F)c3)cc12 [Example B102]

Emax (%): <30%
pEC50: <5.00
EC50: > 10000 nM
Structure (SMILES): Cn1ncc2cc(-c3ccc(CN4Cc5ccccc5C4=O)c(F)c3)ccc21 [Example B114]

Emax (%): 58%
pEC50: 6.25
EC50: 562 nM
Structure (SMILES): O=C1Cc2cc(-c3ccc(CN4Cc5ncccc5C4=O)c(F)c3)ccc2N1 [Example B86]

Emax (%): 41%
pEC50: 5.42
EC50: 3800 nM
Structure (SMILES): Cn1cc2cc(-c3cccc(CN4Cc5ncccc5C4=O)c3F)ccc2n1 [Example B106]

Emax (%): 53%
pEC50: <5.00
EC50: > 10000 nM
Structure (SMILES): O=C1c2cccnc2CN1Cc1ccc(-c2cn3ccnc3cn2)cc1F [Example B90]

Emax (%): 67%
pEC50: 6.51
EC50: 309 nM
Structure (SMILES): O=C1Cc2cc(-c3cc(F)c(CN4Cc5ncccc5C4=O)c(F)c3)ccc2N1 [Example B91]

Emax (%): 62%
pEC50: 6.06
EC50: 871 nM
Structure (SMILES): O=C1c2cccnc2CN1Cc1ccc(-c2ccc3cncn3c2)cc1F [Example B92]

Emax (%): 57%
pEC50: 6.07
EC50: 851 nM
Structure (SMILES): O=C1c2cccnc2CN1Cc1c(F)cc(-c2ccc3nccn3c2)cc1F [Example B80]

Emax (%): 56%
pEC50: 5.07
EC50: 8510 nM
Structure (SMILES): Cn1cc2ccc(-c3ccc(F)c(CN4Cc5ncccc5C4=O)c3)cc2n1 [Example B108]
